Values quoted from earlier work, collected in US20240423997A1, “METHOD OF TREATING AMYOTROPHIC LATERAL SCLEROSIS” (priority 2021, published 2024).

Conditions: in vivo; Shibuya 2001; cited from earlier work

SMILES: O=S(=O)(c1cccc2c(O)nccc12)N1CCCNCC1 [M3, hydroxyfasudil]
- half-life: about 8 hours
